Measured values taken from patent US20100076089A1, “ANTIMICROBIAL GEL FORMULATIONS” (NovaBay Pharmaceuticals, Inc., priority 2008, published 2010).
Values joined by “and” are separate entries in the source; they are usually repeats but may differ in a detail not shown here. Identical values can stand only once.

Assays:
[1] = system: S. aureus; assay: Time-kill assay of antimicrobial gel formulations; type: cell-based; conditions: final inoculum 1.5×10^7 CFU/mL, room temperature
Method: Isolated S. aureus colonies were picked into 5 mL Tryptic Soy Broth (TSB) and grown for 4-6 hours at 37° C. Stock titers were determined by drop plate method. A working stock of S. aureus was prepared by dilution of the culture to a final inoculum of 1.5×10^8 colony forming units (CFU) per mL in sterile pH 4.0 saline. 900 μL of each tested formulation was placed in sterile glass tubes. A 0.1 mL aliquot of S. aureus suspension containing 1.5×10^8 CFU/mL was inoculated into the test sample container to give a final inoculum of 1.5×10^7 CFU/mL. The inoculated formulation was immediately mixed for 3 seconds following inoculation using a vortex and incubated at room temperature. A plate count was performed on the inoculated samples after 0, 5, 15, 30 and 60 minutes following inoculation as follows: • 0.1 mL of the inoculated antimicrobial test agent was placed into 0.9 mL of the D/E neutralizing broth • A 0.1 mL aliquot of each sample in D/E broth was drop plated on appropriately labeled agar dishes
All plates were incubated at 37° C. for 24 hours for bacterial growth assessment. At the conclusion of the incubation period the number of colonies present on the plates was counted. The total number of survivors at each time point was calculated by multiplying the CFU count obtained by the dilution factor.

[2] = system: S. aureus 29213; assay: Radial diffusion assay of antimicrobial gel formulations; type: cell-based; conditions: 100 μl of formulation
Method: Vials containing 0.6% NVC-422 (Drug Control), liquid, pH=5.0; 3% Polyox® WSR 205 (Placebo) Liquid, R.T. pH=5.0; 0.6% NVC-422/3% Polyox® WSR 205, Liquid, R.T., pH=5.0; 0.75% AA-1 (Placebo), 0.6% NVC-422/0.75% AA-1 and 0.23% AA-1 (alternate placebo) were prepared. The first three test articles appeared as clear liquids, while the last three appeared as gels. The samples were tested in the radial diffusion assay against S. aureus 29213. 100 μl of each formulation were tested in duplicate on two plates each (n=4 total).

[3] = system: S. aureus 6538 biofilm; assay: Calgary Biofilm Device (MBEC) assay, absorbance reading; type: cell-based; conditions: 24 hr biofilm, treatment 60 minutes, overnight regrowth in TSB; values greater than 0.1 indicate incomplete biofilm eradication
Method: S. aureus 6538 biofilm was grown in MBEC plates for 24 hr at 35° C. for 24 hr in TSB prior to treatment using the method describe above. The MBEC lid containing pegs coated with biofilm was first rinsed in a plate containing […] of PBS in each well for 1 minute, prior to treatment with a plate containing formulations for 60 minutes total. The lid was neutralized in a plate containing 200 μl D/E Neutralization broth in each well for 1 minute before transferring the lid into a plate containing 150 μl TSB in each well. Plate was incubated overnight at 35° C. Absorbance was read at 650 nm the following day.

[4] = Amount of N,N-dichloro-2,2-dimethyltaurine an AA-1 formulation can hold; type: physicochemical
Description: The formulations may be made by mixing the N-halogenated or N,N-dihalogenated amine compound with the polymer using water. Water/oil emulsions, hydrating agents, wetting agents, surfactants, and the like may also be used. Concentrations of N-halogenated or N,N-dihalogenated amine compound may range from about 0.01% to about 5.0% (by weight). Concentrations of polymer may be from about 0.01% to about 10% (by weight) in water. For example, in certain implementations, the concentration of N-halogenated or N,N-dihalogenated compounds may range from about 0.1% to about 2.0% (by weight). Higher concentrations of polymer may be required to formulate higher concentrations of the N-halogenated or N,N-dihalogenated amine compound. For example, a 1% AA-1 formulation can hold up to about 2% N,N-dichloro-2,2-dimethyltaurine, whereas a 2% AA-1 formulation can hold up to about 3.5% of the same compound. These ratios may differ as different polymers and N-halogenated or N,N-dihalogenated amine compound are combined in a given formulation.

CC(C)(CS(=O)(=O)O)N(Cl)Cl [0.3% NVC-422 alone, N,N-dichloro-2,2-dimethyltaurine]
time to complete kill [1]: 1 h

CC(C)(CS(=O)(=O)O)N(Cl)Cl [0.6% NVC-422, N,N-dichloro-2,2-dimethyltaurine]
time to complete kill ([1]; listed as 0.6% NVC-422 alone): 0.25 h
Clearing zone diameters, Sample 1 ([2]; pH 5.0): 15 mm
Clearing zone diameters, Sample 2 ([2]; pH 5.0): 16 mm
Clearing zone diameters, Sample 3 ([2]; pH 5.0): 16 mm
Clearing zone diameters, Sample 4 ([2]; pH 5.0): 14 mm
Clearing zone diameters, Average +/− SD ([2]; pH 5.0, n=4, pH 5): 15.3 mm and 15.3 +/− 1.0 mm
Ave. Abs at 650 nm [3]: 0.48

CC(C)(CS(=O)(=O)O)N(Cl)Cl [NVC-422, N,N-dichloro-2,2-dimethyltaurine]
amount of compound the formulation can hold ([4]; 1% AA-1 formulation): up to 2%
amount of compound the formulation can hold ([4]; 2% AA-1 formulation): up to 3.5%
